US20160151505A1 (KONINKLIJKE PHILIPS N.V., priority 2011, published 2016)
Read-outs that look alike come from different tables or passages of the source. Marks after values point to notes of the source that are not given here. Values belong to the compound of their own block, whether it stands above or below them.

What was measured:
[1] = Hydrolytic stability tests of tetrazines; format: physicochemical
From the text: This solution was filtered and, the decrease of the absorption band at 525 nm was monitored using UV spectroscopy.

[2] = Reactivity of tetrazines towards trans-cyclooct-4-ene-1-ol (competition experiment); conditions: reference tetrazine 5; reaction with trans-cyclooct-4-ene-1-ol (axial isomer)
Procedure: A competition experiment was performed to determine the reactivity ratio of a specific tetrazine and 3-(5-acetamido-2-pyridyl)-6-(2-pyridyl)-1,2,4,5-tetrazine (that was chosen as the reference tetrazine), in the inverse-electron demand Diels-Alder reaction with trans-cyclooct-4-ene-1-ol (“minor” isomer with OH in axial position, see: Whitham et al. J. Chem. Soc. (C), 1971, 883-896)).
To acetonitrile (0.100 mL) was added 5 μL of a solution of the specific tetrazine in DMSO (25 mM) and 5 μL of a solution of the reference tetrazine in DMSO (25 mM). This mixture was diluted with water (0.9 mL), and the absolute amounts of both tetrazines were determined by HPLC-MS/PDA analysis. Subsequently, a solution of trans-cyclooct-4-ene-1-ol (axial isomer) in DMSO (25 μL 2.5 mM) was slowly added, and the mixture was stirred for 5 min. Again, the absolute amounts of both tetrazines were determined by HPLC-MS/PDA analysis, and conversions for both tetrazines was calculated. From these conversions, the reactivity ratio (R=k2,TCO/k2,Ref) of both tetrazines was calculated using the mathematical procedure from Ingold and Shaw (J. Chem. Soc., 1927, 2918-2926).

[3] = Second-order rate constant determination of trans-cyclooctene derivatives with tetrazine; conditions: UV-visible spectroscopy in acetonitrile at 20° C.
Procedure: The kinetics of the inverse-electron demand Diels-Alder reaction of a trans-cyclooctene derivative with 3-(5-acetamido-2-pyridyl)-6-(2-pyridyl)-1,2,4,5-tetrazine, performed in acetonitrile at 20° C., was determined using UV-visible spectroscopy. A cuvette was filled with acetonitrile (3 mL) and equilibrated at 20° C. 3-(5-Acetamido-2-pyridyl)-6-(2-pyridyl)-1,2,4,5-tetrazine (2.50×10^−7 mol) was added, followed by the trans-cyclooctene derivative (2.50×10^−7 mol). The decay of the absorption at λ=540 nm was monitored, and from this curve the second-order rate constant, k2, was determined assuming second order rate kinetics.

[4] = Stability of trans-cyclooctene derivatives in PBS; conditions: PBS buffer
Procedure: (§1) 10 μL of a solution of the specific trans-cyclooctene derivative in dioxane (25 mM) was diluted with PBS buffer (3 mL), and this solution was stored at 20° C. in the dark.
(§2) The fate of the TCO compound was monitored by HPLC-MS analysis, and an estimation of the half-life time was made based on the release of the model prodrug.

[5] = tested on: A431 squamous carcinoma cells; test: Cell proliferation assay (MTT); format: cell-based; conditions: Homo sapiens
[6] = Reactivity of trans-cyclooctene derivatives: competition experiment; conditions: reference trans-cyclooct-4-ene-1-ol (axial isomer)
Procedure: A competition experiment was performed to determine the reactivity ratio of a specific trans-cyclooctene derivative and trans-cyclooct-4-ene-1-ol (axial isomer) (that was chosen as the reference), in the inverse-electron demand Diels-Alder reaction with bis(2-pyridyl)-1,2,4,5-tetrazine.
This mixture was diluted with water (0.45 mL). Subsequently, a solution of bis(2-pyridyl)-1,2,4,5-tetrazine (6.25×10^−8 mol) in a mixture of acetonitrile (0.05 mL) and water (0.45 mL) was slowly added while stirring vigorously. After addition, the mixture was stirred for an additional 5 min. The conversion of both trans-cyclooctene derivatives was determined by HPLC-MS/PDA analysis, and from these conversions, the reactivity ratio (R=k2,TCO/k2,Ref) of the specific trans-cyclooctene derivative was calculated using the mathematical procedure from Ingold and Shaw (J. Chem. Soc., 1927, 2918-2926).

[7] = Reactivity of tetrazines towards trans-cyclooct-4-ene-1-ol (competition experiment); conditions: values marked *: 50:50 mixture of PBS and acetonitrile; reference tetrazine 5
[8] = Activation of doxorubicin prodrugs (release of doxorubicin); conditions: after 1 hr at 20° C.
Procedure: […] Next, […](E)-cyclooctene-doxorubicin conjugate (64, 2.67×10^−5 g; 2.50×10^−8 mol) was added.
[…] Next, (E)-cyclooctene-doxorubicin conjugate (68, 2.67×10^−5 g; 2.50×10^−8 mol) was added.

physchem = conditions: buffer
Procedure: as §1, §2

[9] = values marked *: 50:50 mixture of PBS and acetonitrile
[10] = stability in PBS at 20° C. t1/2, PBS, 20° C.
[11] = stability in PBS t1/2, PBS, 37° C.

half-life at 83 µM ([1]; PBS buffer, PBS, 20° C.): 340 h
SMILES: Nc1ccc(-c2nnc(-c3ccccn3)nn2)nc1
Reactivity ratio (R = k2,TZ/k2,Ref) [2]: 0.4

half-life at 83 µM ([1]; PBS buffer, PBS, 20° C.): 24 h
SMILES: O=C1CCCC(=O)N1c1ccc(-c2nnc(-c3ccccn3)nn2)nc1
Reactivity ratio (R = k2,TZ/k2,Ref) [2]: 1.6

half-life at 83 µM [1, 9]: > 300 h
SMILES: c1cc(-c2nnc(-c3ccsc3)nn2)cs1

half-life at 83 µM ([1]; PBS buffer, PBS, 20° C.): 115 h
SMILES: Fc1ccc(-c2nnc(-c3ccc(F)cn3)nn2)nc1

half-life at 83 µM [1, 9]: 3.6 h
SMILES: FC(F)(F)c1ccc(-c2nnc(-c3ccc(C(F)(F)F)cn3)nn2)nc1

half-life at 83 µM [1, 9]: 35 h
SMILES: CCCC(=O)Nc1ccc(-c2nnc(-c3ccc(C(F)(F)F)cn3)nn2)nc1

half-life at 83 µM ([1]; PBS buffer, PBS, 20° C.): 3.2 h
SMILES: CCCC(=O)Nc1ccc(-c2nnc(-c3ncccn3)nn2)nc1
Reactivity ratio (R = k2,TZ/k2,Ref) [2]: 2.7

half-life at 83 µM ([1]; PBS buffer, PBS, 20° C.): 117 h
SMILES: CCCC(=O)Nc1ccc(-c2nnc(-c3ccc(F)cn3)nn2)nc1
Reactivity ratio (R = k2,TZ/k2,Ref) [2]: 0.95

half-life at 83 µM ([1]; PBS buffer, PBS, 20° C.): 0.68 h
SMILES: c1cnc(-c2nnc(-c3cnccn3)nn2)cn1
Reactivity ratio (R = k2,TZ/k2,Ref) [2]: 1.5

half-life at 83 µM ([1]; PBS buffer, PBS, 20° C.): > 150 h
SMILES: c1cncc(-c2nnc(-c3cccnc3)nn2)c1
Reactivity ratio (R = k2,TZ/k2,Ref) [2]: 0.19

half-life at 83 µM ([1]; PBS buffer, PBS, 20° C.): 2.4 h
SMILES: c1cc(-c2nnc(-c3ccncc3)nn2)ccn1
Reactivity ratio (R = k2,TZ/k2,Ref) [2]: 0.83

half-life at 83 µM [1, 9]: > 300 h
SMILES: c1csc(-c2nnc(-c3cccs3)nn2)c1

half-life at 83 µM ([1]; PBS buffer, PBS, 20° C.): 183 h
SMILES: NCc1ccc(-c2nncnn2)cc1
Reactivity ratio (R = k2,TZ/k2,Ref) [2]: 0.77

half-life at 83 µM [1, 9]: > 300 h
SMILES: Nc1ccc(-c2nnc(-c3ccccc3)nn2)cc1

half-life at 83 µM [1, 9]: > 300 h
SMILES: Nc1cccc(-c2nnc(-c3ccccc3)nn2)c1

half-life at 83 µM ([1]; PBS buffer, PBS, 20° C.): 4 h
SMILES: CCCNC(=O)c1ccc(-c2nnc(-c3ccccn3)nn2)nc1

half-life at 83 µM [1, 9]: > 300 h
SMILES: c1ccc(-c2nnc(-c3ccccc3)nn2)cc1

half-life at 83 µM ([1]; PBS buffer, PBS, 20° C.): 2.7 h
SMILES: c1ccc(-c2nncnn2)nc1

half-life at 83 µM ([1]; PBS buffer, PBS, 20° C.): 10.3 h
SMILES: CCCC(=O)Nc1ccc(-c2nncnn2)nc1
Reactivity ratio (R = k2,TZ/k2,Ref) [2]: 2.8

half-life at 83 µM ([1]; PBS buffer, PBS, 20° C.): 300 h
SMILES: CCCC(=O)Nc1ccc(-c2nnc(C)nn2)nc1
Reactivity ratio (R = k2,TZ/k2,Ref) [2]: 0.18

half-life at 83 µM ([1]; PBS buffer, PBS, 20° C.): 0.42 h
SMILES: CCCNC(=O)c1ccc(-c2nnc(-c3ncccn3)nn2)nc1
Reactivity ratio (R = k2,TZ/k2,Ref) [2]: 2

half-life at 83 µM [1, 9]: > 300 h
SMILES: c1c[nH]c(-c2nnc(-c3ccc[nH]3)nn2)c1

SMILES: c1c[nH]c(-c2nnc(-c3ncc[nH]3)nn2)n1
Reactivity ratio (R = k2,TZ/k2,Ref) [2]: 1.2

SMILES: N[C@H]1CC/C=C/CC[C@H]1NC(=O)Oc1ccccc1 (relative stereo) [compound 36, cis-(E)-phenyl(8-aminocyclooct-4-en-1-yl)carbamate]
rate contant* k2 [3]: 240 M⁻¹ s⁻¹
half-life at 83 µM [4]: 27 h

half-life at 83 µM [4]: > 480 h
SMILES: NC1CC/C=C/CCC1NC(=O)Nc1ccccc1 (stereo not drawn) [47 major, cis phenyl((E)-8-aminocyclooct-4-en-1-yl)urea]

IC50 ([5]; A-431, A431 cell line, 6 h incubation at 37° C. followed by medium replacement, read-out: IC50): 38 ± 3 nM
SMILES: COc1cccc2c1C(=O)c1c(O)c3c(c(O)c1C2=O)C[C@@](O)(C(=O)CO)C[C@@H]3O[C@H]1C[C@H](N)[C@H](O)[C@H](C)O1 [Dox, Doxorubicin, reference compound]

half-life at 83 µM [4]: > 72 h
SMILES: OC1CC/C=C/CCC1 (stereo not drawn) [axial isomer, trans-cyclooct-4-ene-1-ol, reference compound]
reactivity ratio** (R = k2,TCO/k2,Ref) [6]: 1

half-life at 83 µM ([1]; PBS buffer, PBS, 20° C.): 44 h
SMILES: c1ccc(-c2nnc(-c3ccccn3)nn2)nc1 [compound 2, 3,6-bis(2-pyridyl)-1,2,4,5-tetrazine]

half-life at 83 µM ([1]; PBS buffer, PBS, 20° C.): 80 h
SMILES: CC(=O)Nc1ccc(-c2nnc(-c3ccccn3)nn2)nc1 [compound 5, 3-(5-acetamido-2-pyridyl)-6-(2-pyridyl)-1,2,4,5-tetrazine]
Reactivity ratio (R = k2,TZ/k2,Ref) [2]: 1

half-life at 83 µM ([1]; PBS buffer, PBS, 20° C.): 230 h
SMILES: Cc1nnc(-c2ccccn2)nn1 [compound 7, 3-(2-pyridyl)-6-methyl-1,2,4,5-tetrazine]
Reactivity ratio (R = k2,TZ/k2,Ref) [2]: 0.25

half-life at 83 µM [1, 9]: > 300 h
SMILES: Nc1ccccc1-c1nnc(-c2ccccc2N)nn1 [compound 9, 3,6-bis(2-aminophenyl)-1,2,4,5-tetrazine]
Reactivity ratio (R = k2,TZ/k2,Ref) [7]: <0 .01*

half-life at 83 µM [1, 9]: > 300 h
SMILES: Oc1ccc(-c2nnc(-c3ccc(O)cc3)nn2)cc1 [compound 11, 3,6-bis(4-hydroxyphenyl)-1,2,4,5-tetrazine]

half-life at 83 µM [1, 9]: > 300 h
SMILES: Nc1ccc(-c2nnc(-c3ccc(N)cc3)nn2)cc1 [compound 13, 3,6-bis(4-aminophenyl)-1,2,4,5-tetrazine]

half-life at 83 µM ([1]; PBS buffer, PBS, 20° C.): 16 h
SMILES: NCc1nnc(CN)nn1 [compound 20, 3,6-bis(aminomethyl)-1,2,4,5-tetrazine]

half-life at 83 µM [4]: > 240 h
SMILES: COc1cc(COC(=O)NC2CC/C=C/CCC2N)cc(OC)c1OC (stereo not drawn) [compound 37, cis-(E)-3,4,5-trimethoxybenzyl(8-aminocyclooct-4-en-1-yl)carbamate]
rate contant* k2 [3]: 300 M⁻¹ s⁻¹

SMILES: Cc1ccccc1OC(=O)NC1CC/C=C/CCC1N (stereo not drawn) [compound 39]
half-life at 83 µM [4]: 192 h

SMILES: COc1ccccc1OC(=O)NC1CC/C=C/CCC1N (stereo not drawn) [compound 41]
half-life at 83 µM [4]: 21 h

SMILES: Cc1cccc(C)c1OC(=O)NC1CC/C=C/CCC1N (stereo not drawn) [compound 43]
half-life at 83 µM [4]: > 480 h

SMILES: CC(C)(C)c1ccccc1OC(=O)NC1CC/C=C/CCC1N (stereo not drawn) [compound 45]
half-life at 83 µM [4]: > 480 h

SMILES: NC1/C=C/CCCCC1NC(=O)Oc1ccccc1 (stereo not drawn) [compound 56, trans phenyl(E)-2-aminocyclooct-3-en-1-yl carbamate]
half-life at 83 µM [4]: 120 h

SMILES: O=C(Oc1ccccc1)N1C/C=C/CNCC1 [compound 61, (E)-phenyl 2,3,4,5-tetrahydro-1,4-diazocine-1(8H)-carboxylate]
rate contant* k2 [3]: 47 M⁻¹ s⁻¹
half-life at 83 µM [4]: > 480 h

SMILES: COc1cccc2c1C(=O)c1c(O)c3c(c(O)c1C2=O)C[C@@](O)(C(=O)CO)C[C@@H]3OC1CC(NC(=O)OCc2ccc(CC(=O)NC3CC/C=C/CCC3N)cc2)[C@H](O)C(C)O1 (stereo partly drawn) [compound 64, (E)-cyclooctene-doxorubicin conjugate]
doxorubicin released ([8]; with 3,6-Diphenyl-1,2,4,5-tetrazine): 48%
doxorubicin released ([8]; with 3-(5-Acetamido-2-pyridyl)-6-(2-pyridyl)-1,2,4,5-tetrazine (5)): 30%
doxorubicin released ([8]; with 3-(5-Butyramido-2-pyridyl)-6-(2-pyrimidyl)-1,2,4,5-tetrazine): 20%
doxorubicin released ([8]; with 3-Methyl-6-(2-pyridyl)-1,2,4,5-tetrazine (7)): 52%
doxorubicin released ([8]; with 4-(1,2,4,5-Tetrazin-3-yl)phenylmethanamine): 50%
IC50 ([5]; A-431, 6 h, A431 cell line, 6 h incubation at 37° C. followed by medium replacement): 128 ± 17 nM
IC50 ([5]; A-431, 6 h, A431 cell line, in combination with tetrazine 29 (10 μM), 6 h incubation at 37° C. followed by medium replacement): 49 ± 4 nM
IC50 ([5]; A-431, A431 cells, combination of the prodrug 64 and tetrazine 29): 49 ± 4 nM
IC50 ([5]; A-431, A431 cells, prodrug alone): 128 nM
half-life (physchem; [10]): 24 h
half-life (physchem; [11]): 3.6 h

SMILES: COc1cccc2c1C(=O)c1c(O)c3c(c(O)c1C2=O)C[C@@](O)(C(=O)CO)C[C@@H]3OC1CC(NC(=O)OCc2cc(C)c(CC(=O)NC3CC/C=C/CCC3N)c(C)c2)[C@H](O)C(C)O1 (stereo partly drawn) [compound 68, (E)-cyclooctene-doxorubicin conjugate]
half-life (physchem; [10]): 624 h
half-life (physchem; [11]): 149 h
